The term IC50 denotes the concentration that inhibits the measured activity by half. The low end stands for inhibition by little substance, the high end for a need for much substance.

Read-outs that look alike come from different tables or passages of the source. Square brackets hold non-standard residues; d marks the D form. Peptide text beside a SMILES is read from it. dPhe(4-I) = N[C@H](Cc1ccc(I)cc1)C(=O)O; d2Nal = N[C@H](Cc1ccc2ccccc2c1)C(=O)O; Bta = N[C@@H](Cc1csc2ccccc12)C(=O)O; Tic = O=C(O)[C@@H]1Cc2ccccc2CN1; Nle = CCCC[C@H](N)C(=O)O

These results are taken from patent publication US10899793B2, “Melanocortin ligands and methods of use thereof” (priority 2016, dated 2021).

For assay [1], the target named is T1, mMC4R (Mus musculus, UniProt P56450). Kind of assay: 125I-NDP-MSH competitive binding assay at mMC4R. Particulars: Table 3; vs Ac-His-DPhe-Arg-Trp-NH2; negative = more potent than control.
T1 sequence (P56450 whole entry): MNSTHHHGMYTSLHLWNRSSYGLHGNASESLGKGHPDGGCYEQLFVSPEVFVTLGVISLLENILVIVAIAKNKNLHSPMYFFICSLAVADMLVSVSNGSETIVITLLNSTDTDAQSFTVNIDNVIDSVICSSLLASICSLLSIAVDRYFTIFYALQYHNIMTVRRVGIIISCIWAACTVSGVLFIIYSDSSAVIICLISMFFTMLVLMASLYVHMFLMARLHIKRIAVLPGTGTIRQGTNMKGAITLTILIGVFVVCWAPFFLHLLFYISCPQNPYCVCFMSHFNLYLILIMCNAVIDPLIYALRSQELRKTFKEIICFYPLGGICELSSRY
Assay [2] addresses T2, mMC3R (Mus musculus, UniProt P33033). Kind of assay: 125I-NDP-MSH competitive binding assay at mMC3R. Also noted: expressed in transfected cells. Particulars: for mMC3R (IC50) Fold Diff.: Table 3, vs Ac-His-DPhe-Arg-Trp-NH2, negative = more potent than control. The procedure: A typical experiment utilized a 12-well format. […] Pharm. Des.
The plates were incubated at 37° C. with 5% CO2 for 1 hour. Post incubation, the media was aspirated, each well was washed with 500 μL assay media, and cells were lysed with 500 μL of 0.1 M NaOH and 500 μL of 1% Triton x-100.
Following a 10-15 minute room temperature incubation, the cell lysate mixture was transferred to 12×75 mm polystyrene tubes and the radioactivity was quantified using a WIZARD^2 Automatic Gamma Counter (Perkin-Elmer). […] GraphPad, Inc), and dose-response curves in addition to the corresponding IC50 values were calculated by a non-linear regression method. Each reported value represents the mean and standard error of the mean (SEM) of, at least, two independent experiments each containing two experimental replicates.
Note each reported value represents the mean and standard error of the mean (SEM) of at least two independent experiments containing two experimental replicates.

Assay [3] addresses T2, mMC3R. Particulars: Schild analysis; for mMC3R Antagonist pA2 ± SEM: Table 1, pA2 = -Log(Ki), Full Agonist = full dose-response, No Activity = no shift in EC50.
Assay [4] has as its target T1, mMC4R. In words: AlphaScreen cAMP agonist assay at mMC4R. Particulars: for activation at 100 µM: read-out: mMC4R Agonist, percent of the NDP-MSH maximal positive control. On the technique in general: Bead proximity is the source of the signal in Alpha formats.
Assay [5] has as its target T2, mMC3R. Kind of assay: AlphaScreen cAMP agonist assay at mMC3R.
Assay [6] concerns the target T1, mMC4R. Particulars: Schild analysis.
The target of another assay is mMC1R (Mus musculus, UniProt Q01727). Kind of assay: AlphaScreen cAMP agonist assay at mMC1R.
Sequence of mMC1R (Q01727 whole entry): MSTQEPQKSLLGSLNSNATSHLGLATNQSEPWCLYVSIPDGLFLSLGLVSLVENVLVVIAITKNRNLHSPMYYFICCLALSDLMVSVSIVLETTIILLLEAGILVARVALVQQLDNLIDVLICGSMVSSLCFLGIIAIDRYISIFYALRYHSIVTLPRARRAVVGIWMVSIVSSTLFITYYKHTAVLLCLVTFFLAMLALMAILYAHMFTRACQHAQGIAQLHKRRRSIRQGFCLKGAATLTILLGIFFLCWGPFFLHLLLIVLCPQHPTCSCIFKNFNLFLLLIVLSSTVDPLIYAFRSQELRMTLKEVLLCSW
The next assay deals with mMC5R (Mus musculus, UniProt P41149). In words: AlphaScreen cAMP agonist assay at mMC5R.
Sequence of mMC5R (P41149 whole entry): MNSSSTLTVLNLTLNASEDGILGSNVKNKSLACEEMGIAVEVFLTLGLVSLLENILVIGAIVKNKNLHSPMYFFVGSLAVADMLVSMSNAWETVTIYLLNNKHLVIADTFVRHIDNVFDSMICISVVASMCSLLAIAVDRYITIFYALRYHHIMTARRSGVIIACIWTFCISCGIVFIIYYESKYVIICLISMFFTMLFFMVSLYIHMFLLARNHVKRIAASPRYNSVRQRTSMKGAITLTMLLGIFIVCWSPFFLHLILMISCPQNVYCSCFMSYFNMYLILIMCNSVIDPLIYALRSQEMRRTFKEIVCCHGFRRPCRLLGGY
Assay [7] deals with T1, mMC4R. The arrangement: expressed in transfected cells. Particulars: Joseph et al. 2003; read-out: reported stimulation potency at the mMC4R; cited from earlier work.
Assay [8] deals with T2, mMC3R. The arrangement: expressed in transfected cells. Particulars: Joseph et al. 2003; read-out: reported stimulation potency at the mMC3R; cited from earlier work.

T2 sequence (P33033 whole entry): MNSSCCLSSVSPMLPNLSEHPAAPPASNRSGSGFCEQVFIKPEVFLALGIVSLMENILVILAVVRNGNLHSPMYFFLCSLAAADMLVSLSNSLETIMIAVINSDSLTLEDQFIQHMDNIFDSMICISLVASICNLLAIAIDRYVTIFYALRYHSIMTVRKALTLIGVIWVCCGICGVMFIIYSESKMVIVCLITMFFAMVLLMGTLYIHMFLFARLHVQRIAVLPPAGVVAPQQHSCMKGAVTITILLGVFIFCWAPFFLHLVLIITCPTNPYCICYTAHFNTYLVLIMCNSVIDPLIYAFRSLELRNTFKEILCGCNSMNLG

In the case of `CC(=O)N[C@@H](CCCNC(=N)N)C(=O)N[C@@H](CCCNC(=N)N)C(=O)N[C@H](Cc1ccc(I)cc1)C(=O)N[C@@H](Cc1csc2ccccc12)C(N)=O` [SKY4-48-10, Ac-Arg-Arg-(pI)DPhe-3Bal-NH2], the “mMC4R (IC50) Fold Diff.” value on mMC4R [1] is given as 1. In addition, the “mMC3R (IC50) Fold Diff.” value on mMC3R [2] is given as -52. Moreover, the “mMC3R Antagonist pA2 ± SEM” value at mMC3R [3] is “Full Agonist”. Moreover, the activation at 100 µM at mMC4R [4] came out at 24%.

`CC(=O)N[C@@H](Cc1c[nH]cn1)C(=O)N[C@@H](CCCNC(=N)N)C(=O)N[C@H](Cc1ccc(I)cc1)C(=O)N[C@@H](Cc1csc2ccccc12)C(N)=O` [SKY4-48-11, Ac-His-Arg-(pI)DPhe-3Bal-NH2] (Ac-HR[dPhe(4-I)][Bta]-NH2): the “mMC4R (IC50) Fold Diff.” value on mMC4R [1] is reported as 2. Besides, on mMC3R [2], the “mMC3R (IC50) Fold Diff.” value is -15. Further, the “mMC3R Antagonist pA2 ± SEM” value at mMC3R [3] is “Full Agonist”. For the same compound, the activation at 100 µM on mMC4R [4] was 47%.

Take `CC(=O)N[C@@H](Cc1ccccc1)C(=O)N[C@@H](CCCNC(=N)N)C(=O)N[C@H](Cc1ccc(I)cc1)C(=O)N[C@@H](Cc1csc2ccccc12)C(N)=O` [SKY4-48-15, Ac-Phe-Arg-(pI)DPhe-3Bal-NH2] (Ac-FR[dPhe(4-I)][Bta]-NH2): the “mMC4R (IC50) Fold Diff.” value at mMC4R [1] is recorded as 7. Moreover, at mMC3R [2], the “fold improvement of binding IC50 at the mMC3R compared to SKY4-48-1” value is on record as 9 fold and the “mMC3R (IC50) Fold Diff.” value is reported as -9. Also, at mMC3R [3], the “mMC3R Antagonist pA2 ± SEM” value is listed as “Full Agonist”.

On to `CC(=O)N[C@@H](Cc1ccccc1)C(=O)N[C@@H](CCCNC(=N)N)C(=O)N[C@H](Cc1ccc(I)cc1)C(=O)N1Cc2ccccc2C[C@H]1C(N)=O` [SKY4-48-23, Ac-Phe-Arg-(pI)DPhe-Tic-NH2] (Ac-FR[dPhe(4-I)][Tic]-NH2), for which the “mMC4R (IC50) Fold Diff.” value on mMC4R [1] was determined as 1. The “mMC3R (IC50) Fold Diff.” value at mMC3R [2] was -20. For the same compound, the “mMC3R Antagonist pA2 ± SEM” value on mMC3R [3] is reported as “Full Agonist”.

In the case of `CC(=O)N[C@@H](CCCNC(=N)N)C(=O)N[C@@H](CCCNC(=N)N)C(=O)N[C@H](Cc1ccc(I)cc1)C(=O)N[C@@H](Cc1ccccc1)C(N)=O` [SKY4-48-26, Ac-Arg-Arg-(pI)DPhe-Phe-NH2], the “mMC4R (IC50) Fold Diff.” value on mMC4R [1] came to 4. The “mMC3R (IC50) Fold Diff.” value on mMC3R [2] is -8. The “mMC3R Antagonist pA2 ± SEM” value at mMC3R [3] is listed as “Full Agonist”.

For `CC(=O)N[C@@H](Cc1c[nH]cn1)C(=O)N[C@@H](CCCNC(=N)N)C(=O)N[C@H](Cc1ccccc1)C(=O)N[C@@H](Cc1c[nH]c2ccccc12)C(N)=O` [SKY5-146-6, Ac-His-Arg-DPhe-Trp-NH2] (Ac-HR[dF]W-NH2), the EC50 on mMC3R [5] was 21 µM; at mMC1R, 1.3 µM; at mMC5R, 21 µM; at mMC4R [4], more than 100 µM. At mMC3R [5] (up to 100 μM), the “agonist activity at the mMC3R in words” value is “micromolar agonists”. Moreover, the “mMC4R pA2” value at mMC4R [6] (Table 5) is “pA2 = No Activity”. Further, the “agonist / inverse agonist activity at the mMC1R in words” value on mMC1R (up to 100 μM) is listed as “micromolar agonists”. Moreover, the “mMC3R pA2” value on mMC3R [3] (Table 5) is reported as “Full Agonist”. On mMC5R (up to 100 μM), the “agonist activity at the mMC5R in words” value was “micromolar agonists”. Further, the “agonist activity at the mMC4R in words” value on mMC4R [4] (up to 100 μM) was “no agonist activity”.

Turning to `CC(=O)N[C@H](Cc1ccc2ccccc2c1)C(=O)N[C@@H](CCCNC(=N)N)C(=O)N[C@H](Cc1ccc(I)cc1)C(=O)N1Cc2ccccc2C[C@H]1C(N)=O` [SKY6-24-3, Ac-DNal(2′)-Arg-(pI)DPhe-Tic-NH2] (Ac-[d2Nal]R[dPhe(4-I)][Tic]-NH2), the “mMC4R (IC50) Fold Diff.” value at mMC4R [1] is -3. For the same compound, on mMC3R [2], the IC50 was found to be 0.44 µM, the “fold improvement of binding IC50 at the mMC3R compared to SKY4-48-1” value is 120 fold and the “mMC3R (IC50) Fold Diff.” value is recorded as -120. For the same compound, the “mMC3R Antagonist pA2 ± SEM” value at mMC3R [3] is given as “Full Agonist”. Further, the activation at 100 µM at mMC4R [4] turned out to be 32%.

For “Ac-3Bal-Arg-(pI)DPhe-DNal(2′)-NH2 (Ac-[Bta]R[dPhe(4-I)][d2Nal]-NH2) [SKY4-48-45]”, the “mMC3R Agonist, percent of the NDP-MSH maximal positive control” value with mMC3R [5] (Table 1, @ 100 μM) is 34% @ 100 μM. In addition, the “mMC4R Antagonist pA2 ± SEM” value with mMC4R [6] (Table 1, pA2 = -Log(Ki)) is listed as “No Activity”. In addition, the “mMC1R percent of the NDP-MSH maximal positive control” value in the assay with mMC1R (Table 2, @ 100 μM) is recorded as 36% @ 100 μM. Also, in the assay with mMC3R [3], the “mMC3R Antagonist pA2 ± SEM” value is “No Activity”. The “percent of the NDP-MSH maximal positive control, Table 2” value in the assay with mMC5R (Table 2, @ 100 μM) is 41% @ 100 μM. In addition, the “mMC4R Agonist, percent of the NDP-MSH maximal positive control” value with mMC4R [4] (Table 1, @ 100 μM) worked out at 38% @ 100 μM.

As to “Ac-Ser-Tyr-Ser-Nle-Glu-His-Arg-Phe-Phe-Gly-Lys-Pro-Val-NH2 (Ac-SYS[Nle]EHRFFGKPV-NH2; SMILES CCCC[C@H](NC(=O)[C@H](CO)NC(=O)[C@H](Cc1ccc(O)cc1)NC(=O)[C@H](CO)NC(C)=O)C(=O)N[C@@H](CCC(=O)O)C(=O)N[C@@H](Cc1c[nH]cn1)C(=O)N[C@@H](CCCNC(=N)N)C(=O)N[C@@H](Cc1ccccc1)C(=O)N[C@@H](Cc1ccccc1)C(=O)NCC(=O)N[C@@H](CCCCN)C(=O)N1CCC[C@H]1C(=O)N[C@H](C(N)=O)C(C)C) [chimeric NDP-MSH/AGRP peptide]”, the EC50 in the assay with mMC4R [7] is 0.93 µM; with mMC3R [8], 0.48 µM.
